{"source": "patent US20240301504A1", "about": "“MULTIANALYTE BIOMARKERS FOR LUNG CANCER” (The Curators of the University of Missouri, priority 2021, published 2024)", "tested_on": "H1975 cells", "test": "Trypan blue exclusion cell death assay in H1975 cells", "type": "cell-based", "details": "Osimertinib 100 nM, 24 hrs, FIG. 13C", "protocol": "miRNA Transfections and Osimertinib treatments miRNA stock was prepared by suspending in RNAse-free water. Cells were seeded such that they were 70-80% confluent at the time of transfection. Cells were allowed to adhere for 24 hrs and then transfected with 25 nM of miRNA inhibitors against hsa-miR184 (Sigma #HSTUD0282), hsa-miR22-3p (Sigma #HSTUD0393) or 100 nM of hsa-let7b-5p miRNA mimic (Sigma c #HMI0007) using Lipofectamine 3000 (Invitrogen #L3000001). Osimertinib (100 nM) was added an hour after transfection to cells. Cells were allowed to incubate with transfection mix for 24 hrs at 37° C., 5% CO2 and then washed with 1× PBS and trypsinized to be used for cell count and Western blotting.", "data": [{"smiles": "C=CC(=O)Nc1cc(Nc2nccc(-c3cn(C)c4ccccc34)n2)c(OC)cc1N(C)CCN(C)C", "note": "[Osimertinib]", "values": [{"measurement": "H1975 cell death", "result": "induced"}]}]}
